# Earlier results in patent US20030073069A1, “Drug rescue by redesign of ADMET/PK properties” (priority 2001, published 2003).
# System: P450
# Conditions: not given
row,SMILES,"No. of currently known drug interactions that involve the compound, Inhibition"
1,CN1C[C@H](C(=O)N[C@]2(C)O[C@@]3(O)[C@@H]4CCCN4C(=O)[C@H](Cc4ccccc4)N3C2=O)C[C@@H]2c3cccc4[nH]cc(c34)C[C@H]21 [dihydroergotamine],7
2,CN1C[C@H](C(=O)N[C@]2(C)O[C@@]3(O)[C@@H]4CCCN4C(=O)[C@H](Cc4ccccc4)N3C2=O)C=C2c3cccc4[nH]cc(c34)C[C@H]21 [ergotamine],7
3,O=C1CN=C(c2ccccc2)c2cc(Cl)ccc2N1CC1CC1 [prazapam],2
4,CCC(=O)O[C@](Cc1ccccc1)(c1ccccc1)[C@H](C)CN(C)C [propoxyphene],1

# Same assay, conditions: inhibition of a P450
row,SMILES,"No. of currently known drug interactions that involve the compound, Inhibition"
1,CC(=O)CC(c1ccc([N+](=O)[O-])cc1)c1c(O)c2ccccc2oc1=O (stereo not drawn) [acenocoumarol],1
2,CC(=O)c1ccc2c(c1)N(CCCN1CCN(CCO)CC1)c1ccccc1S2 [acetophenazine],1
3,Clc1ccc2c(c1)C(N1CCNCC1)=Nc1ccccc1O2 [amoxapine],3
4,COc1ccc(CCN2CCC(Nc3nc4ccccc4n3Cc3ccc(F)cc3)CC2)cc1 [astemizole],10
5,CC(C)COCC(CN(Cc1ccccc1)c1ccccc1)N1CCCC1 (stereo not drawn) [bepridil],1
6,COCc1c(C(C)C)nc(C(C)C)c(/C=C/[C@@H](O)C[C@@H](O)CC(=O)O)c1-c1ccc(F)cc1 [cerivastatin],5
7,CCN(CC)CCCC(C)Nc1ccnc2cc(Cl)ccc12 (stereo not drawn) [chloroquine],1
8,CN(C)CCCN1c2ccccc2Sc2ccc(Cl)cc21 [chlorpromazine],1
9,COc1cc(N)c(Cl)cc1C(=O)NC1CCN(CCCOc2ccc(F)cc2)CC1OC (stereo not drawn) [cisapride],15
10,COc1ccc(C(=O)Nc2ccccc2CCC2CCCCN2C)cc1 (stereo not drawn) [encainide],2
11,O=C(NCC1CCCCN1)c1cc(OCC(F)(F)F)ccc1OCC(F)(F)F (stereo not drawn) [flecainide],2
12,OCCN1CCN(CCCN2c3ccccc3Sc3ccc(C(F)(F)F)cc32)CC1 [fluphenazine],1
13,CC(C)n1c(/C=C/C(O)CC(O)CC(=O)O)c(-c2ccc(F)cc2)c2ccccc21 (stereo not drawn) [fluvastatin],1
14,CC[C@H](C)C(=O)O[C@H]1C[C@@H](C)C=C2C=C[C@H](C)[C@H](CC[C@@H]3C[C@@H](O)CC(=O)O3)[C@H]21 [lovastatin],5
15,CN1CCCCC1CCN1c2ccccc2Sc2ccc([S+](C)[O-])cc21 (stereo not drawn) [mesoridazine],1
16,COc1ccc2c(c1)N(C[C@H](C)CN(C)C)c1ccccc1S2 [methotrimeprazine],1
17,COc1ccc2[nH]c([S+]([O-])Cc3ncc(C)c(OC)c3C)nc2c1 (stereo not drawn) [omeprazole],1
18,OCCN1CCN(CCCN2c3ccccc3Sc3ccc(Cl)cc32)CC1 [perphenazine],1
19,CCC(c1ccccc1)c1c(O)c2ccccc2oc1=O (stereo not drawn) [phenprocoumon],1

row,SMILES,"No. of currently known drug interactions that involve the compound, Inhibition"
1,O=c1[nH]c2ccccc2n1C1CCN(CCCC(c2ccc(F)cc2)c2ccc(F)cc2)CC1 [pimozide],3
2,CN1C(C(=O)Nc2ccccn2)=C(O)c2ccccc2S1(=O)=O [piroxicam],1
3,CC[C@H](C)C(=O)O[C@H]1C[C@H](O)C=C2C=C[C@H](C)[C@H](CC[C@@H](O)C[C@@H](O)CC(=O)O)[C@H]21 [pravastatin],1
4,CN(C)CCCN1c2ccccc2Sc2ccccc21 [promazine],1
5,CC(CN1c2ccccc2Sc2ccccc21)N(C)C (stereo not drawn) [promethazine],1
6,CCC(=O)c1ccc2c(c1)N(CC(C)N(C)C)c1ccccc1S2 (stereo not drawn) [propiomazine],1
7,CNCCCC1c2ccccc2C=Cc2ccccc21 [protriptyline],3
8,CO[C@H]1/C=C/O[C@@]2(C)Oc3c(C)c(O)c4c(c3C2=O)C2=NC3(CCN(CC(C)C)CC3)NC2=C(NC(=O)/C(C)=C\C=C\[C@H](C)[C@H](O)[C@@H](C)[C@@H](O)[C@@H](C)[C@H](OC(C)=O)[C@@H]1C)C4=O [rifabutin],6
9,CO[C@H]1/C=C/O[C@@]2(C)Oc3c(C)c(O)c4c(O)c(c(/C=N/N5CCN(C6CCCC6)CC5)c(O)c4c3C2=O)NC(=O)/C(C)=C\C=C\[C@H](C)[C@H](O)[C@@H](C)[C@@H](O)[C@@H](C)[C@H](OC(C)=O)[C@@H]1C [rifapentine],2
10,CC(C)(C)NC(=O)[C@@H]1C[C@@H]2CCCC[C@@H]2CN1C[C@@H](O)[C@H](Cc1ccccc1)NC(=O)[C@H](CC(N)=O)NC(=O)c1ccc2ccccc2n1 [saquinavir],2
11,CCSc1ccc2c(c1)N(CCCN1CCN(C)CC1)c1ccccc1S2 [thiethylperazine],1
12,CC(C)(C)NC[C@H](O)COc1nsnc1N1CCOCC1 [timolol],1
13,CCCCNC(=O)NS(=O)(=O)c1ccc(C)cc1 [tolbutamide],1
14,CN1CCN(CCCN2c3ccccc3Sc3ccc(C(F)(F)F)cc32)CC1 [trifluoperazine],1
15,CN(C)CCCN1c2ccccc2Sc2ccc(C(F)(F)F)cc21 [triflupromazine],1
16,CCCC(CCC)C(=O)O [valproic acid],1
17,CC[C@]1(O)C[C@@H]2CN(CCc3c([nH]c4ccccc34)[C@@](C(=O)OC)(c3cc4c(cc3OC)N(C)[C@H]3[C@@](O)(C(=O)OC)[C@H](OC(C)=O)[C@]5(CC)C=CCN6CC[C@]43[C@@H]65)C2)C1 [vinblastine],4
18,CC[C@]1(O)C[C@H]2CN(CCc3c([nH]c4ccccc34)[C@@](C(=O)OC)(c3cc4c(cc3OC)N(C=O)[C@H]3[C@@](O)(C(=O)OC)[C@H](OC(C)=O)[C@]5(CC)C=CCN6CC[C@]43[C@@H]65)C2)C1 [vincristine],4

# System: P450
# Conditions: induction of a P450
row,SMILES,"No. of currently known drug interactions that involve the compound, Induction"
1,CC(=O)Nc1ccc(O)cc1 [acetaminophen],4
2,C[C@H]1C[C@H]2[C@@H]3CCC4=CC(=O)C=C[C@]4(C)[C@@]3(F)[C@@H](O)C[C@]2(C)[C@@]1(O)C(=O)CO [betamethasone],15
3,O=C1CC2(CCCC2)CC(=O)N1CCCCN1CCN(c2ncccn2)CC1 [buspirone],2
4,C[C@]12CCC(=O)C=C1CC[C@@H]1[C@@H]2C(=O)C[C@@]2(C)[C@H]1CC[C@]2(O)C(=O)CO [cortisone],15
5,CC(C)Nc1cccnc1N1CCN(C(=O)c2cc3cc(NS(C)(=O)=O)ccc3[nH]2)CC1 [delavirdine],2
6,COc1ccc2c(c1)[C@]13CCCC[C@@H]1[C@H](C2)N(C)CC3 [detromethorphan],1
7,C[C@@H]1C[C@H]2[C@@H]3CCC4=CC(=O)C=C[C@]4(C)[C@@]3(F)[C@@H](O)C[C@]2(C)[C@@]1(O)C(=O)CO [dexamethasone],14
8,CC(C)N(CCC(C(N)=O)(c1ccccc1)c1ccccn1)C(C)C (stereo not drawn) [disopyramide],3
9,C[C@H]1c2cccc(O)c2C(=O)C2=C(O)[C@]3(O)C(=O)C(C(N)=O)=C(O)[C@@H](N(C)C)[C@@H]3[C@@H](O)[C@@H]21 [doxycycline],3
10,C[C@]12CCC(=O)C=C1CC[C@H]1[C@@H]3CC[C@](O)(C(=O)CO)[C@@]3(C)C[C@H](O)[C@@]12F [fludrocortisone],14
11,O=C(CCCN1CCC(O)(c2ccc(Cl)cc2)CC1)c1ccc(F)cc1 [haloperidol],3
12,CCC(C)n1ncn(-c2ccc(N3CCN(c4ccc(OCC5COC(Cn6cncn6)(c6ccc(Cl)cc6Cl)O5)cc4)CC3)cc2)c1=O (stereo not drawn) [itraconazole],5
13,CC(=O)N1CCN(c2ccc(OCC3COC(Cn4ccnc4)(c4ccc(Cl)cc4Cl)O3)cc2)CC1 (stereo not drawn) [ketoconazole],2
14,CCC(=O)C(CC(C)N(C)C)(c1ccccc1)c1ccccc1 (stereo not drawn) [methadone],8
15,Clc1ccc(COC(Cn2ccnc2)c2ccc(Cl)cc2Cl)c(Cl)c1 (stereo not drawn) [miconazole],2
16,Cc1c(O)cccc1C(=O)N[C@@H](CSc1ccccc1)[C@H](O)CN1C[C@H]2CCCC[C@H]2C[C@H]1C(=O)NC(C)(C)C [nelfinavir],2
17,CCC1(c2ccccc2)C(=O)NC(=O)NC1=O [phenobarbital],1
18,C=C[C@H]1C[N@@]2CC[C@H]1C[C@H]2[C@H](O)c1ccnc2ccc(OC)cc12 [quinine],2
19,CC(C)c1nc(CN(C)C(=O)N[C@H](C(=O)N[C@@H](Cc2ccccc2)C[C@H](O)[C@H](Cc2ccccc2)NC(=O)OCc2cncs2)C(C)C)cs1 [ritonavir],3
